Laboratory results published in patent US6413958B2, “4-hydroxy-1,8-naphthyridine-3-carboxamides as antiviral agents” (Pharmacia & Upjohn Company, priority 2000, dated 2002).

Assays:
HCMV polymerase = target: T1, HCMV polymerase (Human cytomegalovirus, UniProt P08546); test: HCMV polymerase assay (scintillation proximity assay, modified version); format: biochemical; conditions: modified HCMV polymerase SPA; for IC50: compounds diluted in 100% DMSO, 4.5 mM DTT
T1 construct: made in house; host or cells: recombinant baculovirus-infected SF-9 cells
Description: The HCMV polymerase assay is performed using a scintillation proximity assay (SPA) as described in several references, such as N. D. Cook, et al., Pharmaceutical Manufacturing International, pages 49-53 (1992); K. Takeuchi, Laboratory Practice, September issue (1992); U.S. Pat. No. 4,568,649 (1986); which are incorporated by reference herein. Reactions are performed in 96-well plates. The assay is conducted in 100 μl volume with 5.4 mM HEPES (pH 7.5), 11.7 mM KCl, 4.5 mM MgCl2, 0.36 mg/ml BSA, and 90 nM ^3H-dTTP. Assays are run with and without CHAPS, (3-[(3-cholamidopropyl)-dimethylammonio]-1-propane-sulfonate) at a final concentration of 2 mM. HCMV polymerase is diluted in enzyme dilution buffer containing 50% glycerol, 250 mM NaCl, 10 mM HEPES (pH 7.5), 100 μg/ml BSA, and 0.01% sodium azide. The HCMV polymerase, which is expressed in recombinant baculovirus-infected SF-9 cells and purified according to literature procedures, is added at 10% (or 10 μl) of the final reaction volume, i.e., 100 μl. Compounds are diluted in 50% DMSO and 10 μl are added to each well. Control wells contain an equivalent concentration of DMSO. Unless noted otherwise, reactions are initiated via the addition of 6 nM biotinylated poly(dA)-oligo(dT) template/primer to reaction mixtures containing the enzyme, substrate, and compounds of interest. Plates are incubated in a 25° C. or 37° C. H2O bath and terminated via the addition of 40 μl/reaction of 0.5 M EDTA (pH 8) per well. Reactions are terminated within the time-frame during which substrate incorporation is linear and varied depending upon the enzyme and conditions used, i.e., 30 min. for HCMV polymerase. Ten μl of streptavidin-SPA beads (20 mg/ml in PBS/10% glycerol) are added following termination of the reaction. Plates are incubated 10 min. at 37° C., then equilibrated to room temperature, and counted on a Packard Topcount. Linear regressions are performed and IC50's are calculated using computer software.
A modified version of the above HCMV polymerase assay is performed as described above, but with the following changes: Compounds are diluted in 100% DMSO until final dilution into assay buffer. In the previous assay, compounds are diluted in 50% DMSO. 4.5 mM dithiotherotol (DTT) is added to the polymerase buffer. […] All results are listed as Polymerase IC50 (μM) values. In Table 1, the term “nd” refers to activity data not determined.

T1 sequence (P08546 whole entry): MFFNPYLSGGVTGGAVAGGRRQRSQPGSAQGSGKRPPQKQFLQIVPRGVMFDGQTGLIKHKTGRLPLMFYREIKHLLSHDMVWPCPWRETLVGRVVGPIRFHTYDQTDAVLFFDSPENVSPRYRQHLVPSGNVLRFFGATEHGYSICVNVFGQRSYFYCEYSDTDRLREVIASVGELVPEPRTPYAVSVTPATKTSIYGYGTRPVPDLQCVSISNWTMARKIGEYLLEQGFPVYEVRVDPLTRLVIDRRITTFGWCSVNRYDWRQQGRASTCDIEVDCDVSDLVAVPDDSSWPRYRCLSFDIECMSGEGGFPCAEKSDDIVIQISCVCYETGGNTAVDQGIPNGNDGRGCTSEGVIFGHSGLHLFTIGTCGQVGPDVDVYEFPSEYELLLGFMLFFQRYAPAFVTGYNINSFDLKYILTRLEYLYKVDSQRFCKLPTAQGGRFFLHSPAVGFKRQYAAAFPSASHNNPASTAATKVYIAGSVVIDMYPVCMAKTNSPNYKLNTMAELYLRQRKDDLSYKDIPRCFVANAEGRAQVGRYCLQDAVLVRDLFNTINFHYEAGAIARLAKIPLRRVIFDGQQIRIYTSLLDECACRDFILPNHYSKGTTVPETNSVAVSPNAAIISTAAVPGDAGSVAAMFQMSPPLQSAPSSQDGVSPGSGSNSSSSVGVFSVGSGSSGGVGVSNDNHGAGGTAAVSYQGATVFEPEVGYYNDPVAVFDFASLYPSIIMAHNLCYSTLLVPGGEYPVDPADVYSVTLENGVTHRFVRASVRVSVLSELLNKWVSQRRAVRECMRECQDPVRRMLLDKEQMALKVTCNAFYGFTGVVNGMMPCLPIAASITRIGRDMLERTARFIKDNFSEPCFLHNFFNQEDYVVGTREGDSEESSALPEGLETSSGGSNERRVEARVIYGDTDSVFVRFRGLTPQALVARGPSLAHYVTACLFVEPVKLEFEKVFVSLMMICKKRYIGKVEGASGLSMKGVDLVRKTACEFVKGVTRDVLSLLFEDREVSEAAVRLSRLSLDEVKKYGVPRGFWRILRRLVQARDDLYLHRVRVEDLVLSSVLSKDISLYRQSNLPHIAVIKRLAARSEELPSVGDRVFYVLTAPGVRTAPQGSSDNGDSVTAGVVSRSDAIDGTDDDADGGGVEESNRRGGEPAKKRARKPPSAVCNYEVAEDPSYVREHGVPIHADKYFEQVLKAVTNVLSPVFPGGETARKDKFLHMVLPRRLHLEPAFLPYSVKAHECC

Compound	IC50 (HCMV polymerase) [µM]	melting point	HCMV polymerase inhibition (HCMV polymerase; at 20 μm) [% inhibition]
Cc1nc2ncc(C(=O)NCc3ccc(Cl)cc3)c(O)c2cc1Br [Example 2, 6-bromo-N-(4-chlorobenzyl)-4-hydroxy-7-methyl[1,8]naphthyridine-3-carboxamide]		269 to 270 °C	39
Cc1nc2ncc(C(=O)NCc3ccc(Cl)cc3)c(O)c2cc1C#CCO [Example 3, N-(4-chlorobenzyl)-4-hydroxy-6-(3-hydroxy-1-propynyl)-7-methyl[1,8]naphthyridine-3-carboxamide]	2.1	279 to 281 °C (dec.)	
Cc1ccc2c(O)c(C(=O)NCc3ccc(Cl)cc3)cnc2n1 [Example 1, N-(4-chlorobenzyl)-4-hydroxy-7-methyl[1,8]naphthyridine-3-carboxamide]	26	280 to 285 °C (dec.)	

Next, values leading:

IC50 (HCMV polymerase) [µM]	melting point	HCMV polymerase inhibition (HCMV polymerase; at 20 μm) [% inhibition]	Compound
8.5	265 to 267 °C		COC(=O)c1cc2c(O)c(C(=O)NCc3ccc(Cl)cc3)cnc2nc1C [Example 5, Methyl 6-{[(4-chlorobenzyl)amino]carbonyl}-5-hydroxy-2-methyl[1,8]naphthyridine-3-carboxylate]
13.7	276 to 277 °C		Cc1nc2ncc(C(=O)NCc3ccc(Cl)cc3)c(O)c2cc1I [Example 4, N-(4-chlorobenzyl)-4-hydroxy-6-iodo-7-methyl[1,8]naphthyridine-3-carboxamide]
